Reference: patent US8067537B2, “Composition and method for treatment of stomatitis” (Kyowa Hakko Bio Co., Ltd., priority 2004, dated 2011)

System: chronic stomatitis
Assay: Effectiveness of glutathione in treatment of cat stomatitis
Type: in vivo
[1] = one cat with AIDS and serious chronic stomatitis, 30 mg/kg per day mixed in the feed for two weeks

In the case of `N[C@@H](CCC(=O)N[C@@H](CS)C(=O)NCC(=O)O)C(=O)O` [reduced glutathione, gamma-L-Glu-L-Cys-Gly], the appetite [1] is reported as “improved” and the “fauces erosion and gum inflammation” value [1] is reported as “dramatic improvements”.
With interferon [reference compound] the “improvement of chronic stomatitis” value (same cat, nearly 10 years of treatment before the glutathione) was “no improvement”.
